Assays:
[1] = biological target: T1, GCN2 (Homo sapiens, UniProt Q9P2K8); assay: GCN2 enzyme assay (TR-FRET Lanthascreen, GFP-eIF2alpha substrate); format: biochemical; conditions: 10 μM ATP, 80 nM GFP-eIF2a, 30 nM GCN2
Text: GCN2: Assay Principle & Conditions
This assay can quantificate the activity of the serin kinase GCN2 (general control non-derepressible-2).
This kinase is involved in the stress metabolism of cells. It is activated upon starvation (amino acid depletion). Its natural substrate is eIF2a (eukaryotic initiation factor 2 alpha subunit), a translation factor, which gets activated (phosphorylated) by GCN2 in case of an amino acid bottleneck in the cells. This in turn leads to a halt of the protein synthesis. Inhibition of GCN2 results in stopping this mechanism: The cell can not stop protein production upon “starvation” stress.
The assay is run in two steps: the enzymatic reaction and the detection step. In the first step GCN2 is incubated with 10 μM ATP and 80 nM of the GFP-labelled substrate eIF2alpha at room temperature.
The enzymatic reaction is stopped by addition of EDTA. The amount of phosphorylated eIF2alpha is determined by TR-FRET (Lanthascreen): A complex is formed consisting of antibody and GFP labelled phospho-eIF2a, which allows a FRET upon excitation at 340 nm.
The GCN2-activity is directly proportional to the ratio of fluorescence units at the emission wavelength 520 nm (phosphopeptide-sensitive wavelength=emission of GFP) to the units at 495 nm (reference wavelength=emission of Terbium-chelate).
Final Concentrations in the Enzymatic Reaction

[2] = biological target: T1, GCN2; assay: Cellular assay of GCN2 activity (phospho-eIF2alpha immunocytochemistry in U2OS cells, tryptophanol); format: cell-based; parameters: endogenous in cells; host or cells: U2OS; conditions: 2 h compound, 600 μM tryptophanol 30 min
Protocol: Cellular Assay for the Determination of Compound Activities
Human U2OS cells (2000 cells/well) are seeded into 384-well plates and incubated for 20 hours.
The next day, the cells are treated with the test compounds and incubated for 2 hours. Then, tryptophanol, at a final concentration of 600 μM, is added to the cells and those are incubated for 30 minutes.
The analysis of cellular GCN2 activities is done by immunocytochemistry. Briefly, cells are fixated on the well surfaces by formaldehyde and permeabilized with Triton X-100. The primary antibody (anti-phospho-eIF2alpha (Ser51, Cell Signalling Technology, #3398) is incubated on the treated cells for 20 hours, followed by a 60 minutes incubation of the secondary antibody (anti-rabbit-IgG-Alexa 488; Molecular Probes #11008).
The analysis and quantification of phosphorylated GCN2 is done by scanning the plates in the Acumen Explorer system (TTPLabtech). The obtained data are normalised against the untreated control wells (DMSO only) and expressed as % effect values. The determination of IC50 values is done by using the Graph Pad Prism software.

T1 sequence (Q9P2K8 whole entry): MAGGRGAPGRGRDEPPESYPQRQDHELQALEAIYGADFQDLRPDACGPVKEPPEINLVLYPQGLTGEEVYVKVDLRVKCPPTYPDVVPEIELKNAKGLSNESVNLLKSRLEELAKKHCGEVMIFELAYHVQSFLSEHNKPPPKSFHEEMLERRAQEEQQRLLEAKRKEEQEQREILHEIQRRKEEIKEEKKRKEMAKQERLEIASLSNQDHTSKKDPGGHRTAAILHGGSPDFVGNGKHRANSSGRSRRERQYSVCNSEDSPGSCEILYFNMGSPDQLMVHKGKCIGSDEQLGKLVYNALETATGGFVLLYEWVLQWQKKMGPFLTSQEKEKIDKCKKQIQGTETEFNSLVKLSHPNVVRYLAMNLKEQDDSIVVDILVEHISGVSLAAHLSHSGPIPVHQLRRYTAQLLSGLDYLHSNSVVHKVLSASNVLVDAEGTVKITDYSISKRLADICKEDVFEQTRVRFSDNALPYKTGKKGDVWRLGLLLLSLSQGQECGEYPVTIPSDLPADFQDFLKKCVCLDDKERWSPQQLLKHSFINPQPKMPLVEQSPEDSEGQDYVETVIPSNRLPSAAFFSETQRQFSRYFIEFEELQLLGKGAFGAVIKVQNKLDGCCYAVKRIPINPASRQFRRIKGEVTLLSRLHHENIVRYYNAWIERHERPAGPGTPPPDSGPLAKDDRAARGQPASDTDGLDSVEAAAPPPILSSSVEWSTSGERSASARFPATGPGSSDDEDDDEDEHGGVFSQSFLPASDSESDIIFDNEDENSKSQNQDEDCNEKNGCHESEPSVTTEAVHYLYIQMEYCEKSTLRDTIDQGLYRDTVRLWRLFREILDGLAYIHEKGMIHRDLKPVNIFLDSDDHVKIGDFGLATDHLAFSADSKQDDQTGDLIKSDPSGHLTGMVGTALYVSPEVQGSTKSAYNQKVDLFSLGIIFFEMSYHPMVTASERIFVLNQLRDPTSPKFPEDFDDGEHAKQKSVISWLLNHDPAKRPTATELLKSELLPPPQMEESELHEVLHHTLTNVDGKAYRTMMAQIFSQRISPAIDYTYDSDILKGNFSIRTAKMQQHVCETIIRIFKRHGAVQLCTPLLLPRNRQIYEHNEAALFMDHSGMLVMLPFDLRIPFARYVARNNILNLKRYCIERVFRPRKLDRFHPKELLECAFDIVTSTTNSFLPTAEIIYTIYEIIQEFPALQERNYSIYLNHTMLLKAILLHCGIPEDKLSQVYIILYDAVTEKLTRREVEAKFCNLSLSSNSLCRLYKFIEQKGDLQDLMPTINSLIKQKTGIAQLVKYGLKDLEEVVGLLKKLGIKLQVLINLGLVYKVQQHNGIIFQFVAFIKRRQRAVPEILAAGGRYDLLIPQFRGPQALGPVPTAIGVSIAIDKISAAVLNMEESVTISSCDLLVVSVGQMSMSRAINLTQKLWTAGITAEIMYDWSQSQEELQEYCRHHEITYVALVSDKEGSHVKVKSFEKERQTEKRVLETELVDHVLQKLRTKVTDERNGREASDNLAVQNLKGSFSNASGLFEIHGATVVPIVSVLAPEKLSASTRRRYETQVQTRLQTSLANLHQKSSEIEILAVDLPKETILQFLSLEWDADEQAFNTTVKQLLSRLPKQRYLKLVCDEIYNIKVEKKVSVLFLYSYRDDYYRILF

Row | SMILES | IC50 [1] [nM] | IC50 [2] [nM]
1 | O=C1CCOc2ccc(cc2)-n2nnc3cnc(nc32)Nc2cnn(c2)CCCN1 [Compound A1, 2,7-diaza-11-oxa-3H-1(5,3)-[1,2,3]triazolo[4,5-d]pyrimidina-1H-3(4,1)-pyrazola-12(1,4)-benzenacyclododecaphane-8-one] | < 1000 | –
2 | O=C1CCCOc2ccc(cc2)-n2nnc3cnc(nc32)Nc2cnn(c2)CCCN1 [Compound A2] | < 1000 | –
3 | O=C1COc2ccc(cc2)-n2nnc3cnc(nc32)Nc2cnn(c2)CCCN1 [Compound A3] | 1000 to 5000 | –
4 | O=C1CCCOc2ccc(cc2)-n2nnc3cnc(nc32)Nc2ccc(cc2)OCCCCN1 [Compound A4] | < 1000 | –
5 | O=C1CCOc2ccc(cc2)-n2nnc3cnc(nc32)Nc2ccc(cc2)CCCN1 [Compound A5] | 5000 to 10000 | –
6 | O=C1CCCOc2ccc(cc2)-n2nnc3cnc(nc32)Nc2ccc(cc2)CCCN1 [Compound A6] | 1000 to 5000 | –
7 | O=C1CCCCOc2ccc(cc2)Nc2ncc3nnn(c3n2)-c2cnn(c2)CCCN1 [Compound A7] | < 1000 | –
8 | O=C1CCn2cc(cn2)-n2nnc3cnc(nc32)Nc2ccc(cc2)OCCCN1 [Compound A8] | 5000 to 10000 | –
9 | O=C1CCn2cc(cn2)-n2nnc3cnc(nc32)Nc2ccc(cc2)OCCCCN1 [Compound A9] | 5000 to 10000 | –
10 | c1nn2cc1Nc1ncc3nnn(c3n1)-c1ccc(cc1)OCCNCCC2 [Compound A10] | < 1000 | –
11 | O=C1CCn2cc(cn2)-n2nnc3cnc(nc32)Nc2cccc(c2)OCCCN1 [Compound A11] | < 1000 | –
12 | CN1CCCCn2cc(cn2)Nc2ncc3nnn(c3n2)-c2ccc(cc2)OCCCCC1=O [Compound A12] | < 1000 | –
13 | O=C1CCCOc2ccc(cc2)-n2nnc3cnc(nc32)Nc2cccc(c2)OCCCN1 [Compound A13] | < 1000 | –
14 | O=C1CCCOc2ccc(cc2)-n2cnc3cnc(nc32)Nc2cnn(c2)CCCN1 [Compound A14] | < 1000 | –
15 | O=C1CCCOc2ccc(cc2)-n2cnc3cnc(nc32)Nc2ccc(cc2)OCCCN1 [Compound A15] | < 1000 | –
16 | O=C1CCCCOc2ccc(cc2)-n2cnc3cnc(nc32)Nc2ccc(cc2)OCCCN1 [Compound A16] | < 1000 | –
17 | O=C1CCCCOc2ccc(cc2)-n2nnc3cnc(nc32)Nc2cnn(c2)CCC2CCN1CC2 [Compound A17] | 1000 to 5000 | –
18 | O=C1CCCOc2ccc(cc2)-n2cnc3cnc(nc32)Nc2ccc(cc2)CCCN1 [Compound A18] | < 1000 | –
19 | O=C1CCCCOc2ccc(cc2)-n2cnc3cnc(nc32)Nc2ccc(cc2)CCCN1 [Compound A19] | < 1000 | –
20 | O=C1CCCOc2ccc(cc2)-n2cnc3cnc(nc32)Nc2cnn(c2)CCCO1 [Compound A20] | 1000 to 5000 | –
21 | O=C1CCCOc2ccc(cc2)-n2nnc3cnc(nc32)Nc2cnn(c2)CCN2CCN(CCCN1)CC2 [Compound A21] | < 1000 | –
22 | O=C1CCCn2cc(cn2)Nc2ncc3nnn(c3n2)-c2ccc(cc2)CN1 [Compound A22] | 1000 to 5000 | –
23 | O=C1CCCn2cc(cn2)Nc2ncc3nnn(c3n2)-c2cnn(c2)CCCN1 [Compound A23] | < 1000 | –
24 | O=C1CCCn2cc(cn2)Nc2ncc3nnn(c3n2)-c2ccc(cc2)OCCCN1 [Compound A24] | < 1000 | –
25 | c1cc2ccc1CCNCCCCn1cc(cn1)Nc1ncc3nnn-2c3n1 [Compound A25] | < 1000 | –
26 | O=C1CCCCOc2ccc(cc2)-n2nnc3cnc(nc32)Nc2cnn(c2)CCCN1 [Compound A26] | < 1000 | < 1000
27 | O=C1CCCc2ccc(cc2)Nc2ncc3ncn(c3n2)-c2ccc(cc2)OCCCCN1 [Compound A27] | 1000 to 5000 | –

Reference: patent publication US9861635B2, “Macrocycles as kinase inhibitors” (Merck Patent GmbH, priority 2013, dated 2018)
